Experimental data as given in patent US9770441B1, “Crystalline solid forms of 6-carboxy-2-(3,5-dichlorophenyl)-benzoxazole” (Pfizer Inc., priority 2014, dated 2017).

Legend:
[1] = isothermal vapor sorption analysis; type: physicochemical; details: up to 90% relative humidity, ambient temperature
Procedure: Form 1 was analyzed via isothermal vapor sorption analysis, which is a gravimetric technique that measures how quickly and how much of a solvent is absorbed by a sample: such as a dry powder absorbing water. It does this by varying the vapor concentration surrounding the sample and measuring the change in mass which this produces.

[2] = hygroscopicity as stated in the description of the solid form; type: physicochemical; details: crystalline anhydrous form

reversible weight gain [1]: less than 0.25%
hygroscopicity of the solid form [2]: non-hygroscopic
SMILES: O=C(O)c1ccc2nc(-c3cc(Cl)cc(Cl)c3)oc2c1 [Form 1, 6-carboxy-2-(3,5-dichlorophenyl)-benzoxazole]
